Results taken from patent publication US20230357354A1, “CD38-BINDING CD31 PEPTIDES AND USES THEREOF” (ENCEFA, priority 2020, published 2023).

biological target: recombinant His-tagged CD38 (Homo sapiens, UniProt P28907); experiment: Pepscan-based ELISA of His-tagged CD38 on CD31 peptide arrays; type: binding; settings: mimic type BET (β-turn mimic, mP2 CLIPS); sample with the highest signal
From the text: Different sets of sCD31 peptides were synthesized according to the following designs. Note that actual order of peptides on mini-cards in some was randomized. • Set #1 • Mimic type: linear • Label: LIN15 • Linear peptides of 15 consecutive amino acid residues in length, derived from the target sequence of sCD31 with an offset of […]. • Set #2 • Mimic type: single loop (mP2 CLIPS) • Label: LOOP7 • Constrained peptides of 9 amino acid residues in length. On positions 2-8 are incorporated 7 consecutive amino acid residues derived from the target sequence of sCD31 with an offset of 1.3 residues. Cys residues were inserted on positions 1 and 9 and joined by mP2 CLIPS in order to create a loop mimic. Native Cys residues, if present, were replaced by Ser residues. • Set #3 • Mimic type: single loop, (mP2 CLIPS) • Label: LOOP15 • Constrained peptides of 17 amino acid residues in length. On positions 2-16 are incorporated 15 consecutive amino acid residues derived from the target sequence of sCD31 with an offset of […]. Cys residues were inserted on positions 1 and 17 and joined by mP2 CLIPS in order to create a loop mimic. Native Cys residues, if present, were replaced by Ser residues. • Set #4 • Mimic type: β-turn peptide mimics (mP2 CLIPS) • Label: BET • β-turn peptide mimics of 22 amino acid residues in length. On positions 2-21 are incorporated 20 consecutive amino acid residues derived from the target sequence of sCD31 with an offset of 1.3 residues. Residues on positions 11 and 12 are replaced by a Pro-Gly motif in order to induce the β-turn formation. Cys residues were inserted on positions 1 and 22 and joined by mP2 CLIPS in order to stabilize the mimic. Native Cys residues, if present, were replaced by Ser residues.
To reconstruct epitopes of sCD31, a library of peptide-based peptide mimics was synthesized using Fmoc-based solid-phase peptide synthesis. An amino functionalized polypropylene support was obtained by grafting with a hydrophilic polymer formulation, followed by reaction with t-butyloxycarbonyl-hexamethylenediamine (BocHMDA) using dicyclohexylcarbodiimide (DCC) with N-hydroxybenzotriazole (HOBt) and subsequent cleavage of the Boc-groups using trifluoroacetic acid (TFA).
Standard Fmoc-peptide synthesis was used to synthesize peptides on the amino-functionalized solid support by custom modified JANUS liquid handling stations (Perkin Elmer).
Synthesis of structural mimics was done using CLIPS technology. CLIPS technology allows to structure peptides into single loops, double loops, triple loops, sheet-like folds, helix-like folds, and combinations thereof. CLIPS templates are coupled to cysteine residues. The side-chains of multiple cysteines in the peptides are coupled to one or two CLIPS templates. For example, a 0.5 mM solution of the P2 CLIPS (2,6-bis(bromomethyl)pyridine) is dissolved in ammonium bicarbonate (20 mM, pH 7.8)/acetonitrile (1:3, v/v). This solution is added onto the peptide arrays. The CLIPS template binds to side-chains of two cysteines as present in the solid-phase bound peptides of the peptide-arrays (455 wells plate with 3-µL wells). The peptide arrays are gently shaken in the solution for 30 to 60 minutes while completely covered in solution.
Finally, the peptide arrays are washed extensively with excess of H2O and sonicated in disrupt-buffer containing 1% SDS / 0.1 % 2,2′-(ethylenedioxy)diethanethiol in PBS (pH 7.2) at 70° C. for 30 minutes, followed by sonication in H2O for another 45 minutes.
The binding of the sample (recombinant His-tagged CD38; 9 µg/mL and 20 µg/mL) to each of the synthesized peptides was tested in a pepscan-based ELISA. The peptide arrays were incubated with primary sample solution (overnight at 4° C.). […]

| Value (binding intensity of His-tagged CD38), BET conformational peptide array [mAU] | Substance |
| --- | --- |
| 378 | 270 (CYKDDVLFYNPGSMKSTESYFC) [compound 270] |
| 695 | 271 (CKDDVLFYNIPGMKSTESYFIC) [compound 271] |
| 524 | 272 (CDDVLFYNISPGKSTESYFIPC) [compound 272] |
| 632 | 273 (CVLFYNISSMPGTESYFIPEVC) [compound 273] |
| 897 | 274 (CKMVKLKREKPGRDQNFVILEC) [compound 274] |
| 833 | 275 (CKLKREKNSRPGNFVILEFPVC) [compound 275] |
| 817 | 276 (CLKREKNSRDPGFVILEFPVEC) [compound 276] |
| 839 | 277 (CSKVESSRISPGSSIVVNITEC) [compound 277] |
| 637 | 278 (CESSRISKVSPGVVNITELFSC) [compound 278] |
| 461 | 279 (CPANFTIQKEPGIVSQTQDFTC) [compound 279] |
| 417 | 280 (CQIVVSEMLSPGRISYDAQFEC) [compound 280] |
| 414 | 281 (CIVVSEMLSQPGISYDAQFEVC) [compound 281] |
| 635 | 282 (CVVSEMLSQPPGSYDAQFEVIC) [compound 282] |
| 601 | 283 (CLSEVLRVKVPGPVDEVQISIC) [compound 283] |
| 447 | 284 (CEVLRVKVIAPGDEVQISILSC) [compound 284] |

same assay, conditions: mimic type LOOP7 (single loop, mP2 CLIPS); sample with the highest signal

| Value (binding intensity of His-tagged CD38), LOOP7 conformational peptide array [mAU] | Substance |
| --- | --- |
| 1186 | 291 (CNFVILEFC) [compound 291] |

system: human Daudi cells; experiment: not given; type: cell-based; settings: glucose-deprived cells, 1 hour treatment (1 µM per figure legends; 10 µg/mL per method), 2-NBDG 500 µM 30 minutes
Experimental: Human Daudi cells cultured in 75 cm^2 flask were centrifuged ( 300 g, 3 minutes), resuspended in warmed PBS supplemented with 10 % goat serum and seeded in 96-well microplate ( 100 µL, 2 × 10^6 cells/mL) in order to deprive cells from glucose. Cells were treated with test treatments (10 µg/mL) for 1 hour (37° C.). Cells were then incubated with 500 µM of the fluorescent and non-metabolizable glucose analog 2-NBDG ((2R,3R,4S,5R)-3,4,5,6-tetrahydroxy-2-[(7-nitro-2,1,3-benzoxadiazol-4-yl)amino]hexanal; Thermo Fischer) for 30 minutes at 37° C., and washed 4 times with PBS containing 10 % of goat serum. Images were acquired using a Zeiss microscope (20 X) and the relative fluorescence intensity of 30 cells was determined using Fiji.
To determine the effect of test compounds on glucose uptake, we developed a cellular model based on the use of human Daudi cells, a cell line known to strongly express CD38.
Human Daudi cells were plated in culture medium deprived of glucose and exposed to test treatments (peptides of Table 6) for 1 hour and then incubated with the non-metabolizable, fluorescent glucose 2-NBDG. After 30 minutes of incubation, cells were washed and imaged using a microscope. Fluorescence levels were determined using Fiji.

| Substance | glucose uptake (2-NBDG fluorescence) |
| --- | --- |
| FELIVFN (Scramble peptide) [SEQ ID NO: 285, scramble peptide containing the same amino acid residues as NFVILEF in a different order] | not able to increase glucose uptake |
| FVILEFP [SEQ ID NO: 292] | failed to reproduce the effect of sCD31 |
| HFVILEFP [SEQ ID NO: 304] | impact the glucose uptake-increasing activity of the peptide |
| NDVILEFP [SEQ ID NO: 310] | impact the glucose uptake-increasing activity of the peptide |
| NFVALEFP [SEQ ID NO: 296] | slightly decreased the activity of the peptide, although it remained overall active |
| NFVDLEFP [SEQ ID NO: 315] | impact the glucose uptake-increasing activity of the peptide |
| NFVFLEFP [SEQ ID NO: 311] | still active |
| NFVHLEFP [SEQ ID NO: 314] | impact the glucose uptake-increasing activity of the peptide |
| NFVIAEFP [SEQ ID NO: 297] | slightly decreased the activity of the peptide, although it remained overall active |
| NFVIDEFP [SEQ ID NO: 319] | impact the glucose uptake-increasing activity of the peptide |
| NFVIFEFP [SEQ ID NO: 317] | increased glucose uptake, even more efficiently than SEQ ID NO: 297 |
| NFVIHEFP [SEQ ID NO: 318] | impact the glucose uptake-increasing activity of the peptide |
| NFVITEFP [SEQ ID NO: 316] | impact the glucose uptake-increasing activity of the peptide |
| NFVQLEFP [SEQ ID NO: 313] | still active |
| NFVTLEFP [SEQ ID NO: 312] | still active |
| NHVILEFP [SEQ ID NO: 309] | impact the glucose uptake-increasing activity of the peptide |
| NSMLIEFT [SEQ ID NO: 320] | still able to increase glucose uptake |
| NSVILEFP [SEQ ID NO: 308] | keep glucose uptake-increasing activity |
| NWVILEFP [SEQ ID NO: 306] | still increase glucose uptake |
| NYVILEFP [SEQ ID NO: 305] | still increase glucose uptake |
| QFVILEFP [SEQ ID NO: 301] | still increase glucose uptake |
| SFVILEFP [SEQ ID NO: 302] | still increase glucose uptake, although to a lesser extent |
| TFVILEFP [SEQ ID NO: 303] | still increase glucose uptake, although to a lesser extent |

same assay, conditions: parent SEQ ID NO: 6 (deletions) or SEQ ID NO: 8 (alanine scanning); 2-NBDG fluorescence

| Substance | effect of the C-terminal deletion or alanine substitution (relative to the parent peptide) on glucose uptake |
| --- | --- |
| NFAILEFP [SEQ ID NO: 295] | had no effect on glucose uptake |
| NFVILAFP [SEQ ID NO: 298] | had no effect on glucose uptake |
| NFVILEAP [SEQ ID NO: 299] | had no effect on glucose uptake |
| NFVILEFA [SEQ ID NO: 300] | had no effect on glucose uptake |
